Assay results from patent US20140221424A1, “PHARMACEUTICAL COMPOSITIONS FOR USE IN THE TREATMENT OF CYSTIC FIBROSIS” (Vertex Pharmaceuticals Incorporated, priority 2013, published 2014).
Values after ≈ are worked out from the molar mass of the structure shown. Like-named read-outs stand apart in the source and are kept apart here.

Legend:
[1] = Potency of metabolites relative to ivacaftor
Text: (§1) Ivacaftor is extensively metabolized in humans. […] M1 and M6 are the two major metabolites of ivacaftor in humans. M1 has approximately one-sixth the potency of ivacaftor and is considered pharmacologically active. M6 has less than one-fiftieth the potency of ivacaftor and is not considered pharmacologically active.

[2] = Elimination / human PK study with radioactivity; format: in vivo; details: for share of the total dose eliminated as this metabolite: po
Text: (§2) Following oral administration, the majority of ivacaftor (87.8%) is eliminated in the feces after metabolic conversion. The major metabolites M1 and M6 accounted for approximately 65% of the total dose eliminated with 22% as M1 and 43% as M6. There was negligible urinary excretion of ivacaftor as unchanged parent. […] The mean apparent clearance (CL/F) of ivacaftor was similar for healthy subjects and patients with CF.
KALYDECO™ has not been studied in patients with mild, moderate or severe renal impairment (creatinine clearance less than or equal to 30 mL/min) or in patients with end stage renal disease. No dose adjustments are recommended for mild and moderate renal impairment patients because of minimal elimination of ivacaftor and its metabolites in urine (only 6.6% of total radioactivity was recovered in the urine in a human PK study); however, caution is recommended when administering KALYDECO™ to patients with severe renal impairment or end stage renal disease.

CYP3A = assay: Drug interaction studies: other drugs on ivacaftor exposure; format: in vivo, human
Protocol: Drug interaction studies were performed with KALYDECO™ and other drugs likely to be co-administered or drugs commonly used as probes for pharmacokinetic interaction studies [see Drug Interactions (subsection 7 of section V)].
(§3) The data obtained for KALYDECO™ without co-administration of inducers or inhibitors are used as reference.

[3] = test system: CYP3A enzymes (i.e., CYP3A4 and CYP3A5); assay: Metabolism by CYP3A (in vitro and clinical studies); format: in vitro ADME, human; details: for substrate of CYP3A enzymes (CYP3A4 and CYP3A5): in vitro studies
Text: as §1, §3

[4] = Clinical pharmacokinetics after oral administration; format: in vivo, human
Protocol: After every 12 hour dosing, steady-state plasma concentrations of ivacaftor were reached by days 3 to 5, with an accumulation ratio ranging from 2.2 to 2.9.
The exposure of ivacaftor increased approximately 2- to 4-fold when given with food containing fat. Therefore, KALYDECO™ should be administered with fat-containing food. Examples of fat-containing foods include eggs, butter, peanut butter, and cheese pizza. The median (range) tmax is approximately 4.0 (3.0; 6.0) hours in the fed state.
The mean apparent volume of distribution (Vz/F) of ivacaftor after a single dose of 275 mg of KALYDECO™ in the fed state was similar for healthy subjects and patients with CF. After oral administration of 150 mg every 12 hours for 7 days to healthy volunteers in a fed state, the mean (±SD) for apparent volume of distribution was 353 (122) L.
as §2

[5] = Pharmacokinetics in moderate hepatic impairment; format: in vivo, human
Protocol: Therefore, a reduced KALYDECO™ dose of 150 mg once daily is recommended for patients with moderate hepatic impairment. The impact of mild hepatic impairment (Child-Pugh Class A) on pharmacokinetics of ivacaftor has not been studied, but the increase in ivacaftor AUC0-∞ is expected to be less than two-fold. Therefore, no dose adjustment is necessary for patients with mild hepatic impairment. The impact of severe hepatic impairment (Child-Pugh Class C, score 10-15) on pharmacokinetics of ivacaftor has not been studied. […] When benefits are expected to outweigh the risks, KALYDECO™ should be used with caution in patients with severe hepatic impairment at a dose of 150 mg given once daily or less frequently.
Therefore, a reduced dose of 150 mg once daily is recommended in patients with moderate hepatic impairment.

male and female rats = assay: Fertility and reproductive performance in rats; format: in vivo, rat
Protocol: Ivacaftor impaired fertility and reproductive performance indices in male and female rats at 200 mg/kg/day (approximately 5 and 6 times, respectively, the MRHD based on summed AUCs of ivacaftor and its metabolites). […] These impairments of fertility and reproductive performance in male and female rats at 200 mg/kg/day were attributed to severe toxicity.

[6] = test system: patients with a G551D mutation; assay: Population PK/PD analysis (Emax model) of FEV1 versus ivacaftor exposure; design: species or system human; details: pooled Phase 2a and Phase 3 data
Text: Therefore, median Cmin at EC90 was chosen as the target PK parameter for efficacy.

mice = assay: Two-year carcinogenicity study in mice; format: in vivo, mouse; details: oral doses up to 200 mg/kg/day
Protocol: (§4) Two-year studies were conducted in mice and rats to assess carcinogenic potential of KALYDECO™.

lactating female rats = assay: Excretion into milk of lactating rats; format: in vivo, rat
Protocol: Excretion of ivacaftor into human milk is probable. There are no human studies that have investigated the effects of ivacaftor on breast-fed infants. Caution should be exercised when KALYDECO™ is administered to a nursing person.

Solubility in water = format: physicochemical; details: practically insoluble
Text: Ivacaftor is a white to off-white powder that is practically insoluble in water (<0.05 microgram/mL).

juvenile rats = assay: Juvenile rat toxicology; format: in vivo; details: juvenile rats dosed postnatal day 7-35, 10 mg/kg/day and higher
Text: This finding has not been observed in older animals.

Plasma protein binding = format: in vitro ADME; details: human
Text: Ivacaftor is approximately 99% bound to plasma proteins, primarily to alpha 1-acid glycoprotein and albumin.

rats [7] = assay: Two-year carcinogenicity study in rats; format: in vivo, rat; details: oral doses up to 50 mg/kg/day
Protocol: as §4

G551D-CFTR protein [8] = target: T1, G551D-CFTR protein (Homo sapiens, UniProt P13569, G551D); assay: Single channel patch clamp, membrane patches from rodent cells expressing G551D-CFTR; format: biochemical; design: expressed in transfected cells; details: versus untreated cells, after addition of PICA and ATP
T1 sequence (P13569 whole entry G551D): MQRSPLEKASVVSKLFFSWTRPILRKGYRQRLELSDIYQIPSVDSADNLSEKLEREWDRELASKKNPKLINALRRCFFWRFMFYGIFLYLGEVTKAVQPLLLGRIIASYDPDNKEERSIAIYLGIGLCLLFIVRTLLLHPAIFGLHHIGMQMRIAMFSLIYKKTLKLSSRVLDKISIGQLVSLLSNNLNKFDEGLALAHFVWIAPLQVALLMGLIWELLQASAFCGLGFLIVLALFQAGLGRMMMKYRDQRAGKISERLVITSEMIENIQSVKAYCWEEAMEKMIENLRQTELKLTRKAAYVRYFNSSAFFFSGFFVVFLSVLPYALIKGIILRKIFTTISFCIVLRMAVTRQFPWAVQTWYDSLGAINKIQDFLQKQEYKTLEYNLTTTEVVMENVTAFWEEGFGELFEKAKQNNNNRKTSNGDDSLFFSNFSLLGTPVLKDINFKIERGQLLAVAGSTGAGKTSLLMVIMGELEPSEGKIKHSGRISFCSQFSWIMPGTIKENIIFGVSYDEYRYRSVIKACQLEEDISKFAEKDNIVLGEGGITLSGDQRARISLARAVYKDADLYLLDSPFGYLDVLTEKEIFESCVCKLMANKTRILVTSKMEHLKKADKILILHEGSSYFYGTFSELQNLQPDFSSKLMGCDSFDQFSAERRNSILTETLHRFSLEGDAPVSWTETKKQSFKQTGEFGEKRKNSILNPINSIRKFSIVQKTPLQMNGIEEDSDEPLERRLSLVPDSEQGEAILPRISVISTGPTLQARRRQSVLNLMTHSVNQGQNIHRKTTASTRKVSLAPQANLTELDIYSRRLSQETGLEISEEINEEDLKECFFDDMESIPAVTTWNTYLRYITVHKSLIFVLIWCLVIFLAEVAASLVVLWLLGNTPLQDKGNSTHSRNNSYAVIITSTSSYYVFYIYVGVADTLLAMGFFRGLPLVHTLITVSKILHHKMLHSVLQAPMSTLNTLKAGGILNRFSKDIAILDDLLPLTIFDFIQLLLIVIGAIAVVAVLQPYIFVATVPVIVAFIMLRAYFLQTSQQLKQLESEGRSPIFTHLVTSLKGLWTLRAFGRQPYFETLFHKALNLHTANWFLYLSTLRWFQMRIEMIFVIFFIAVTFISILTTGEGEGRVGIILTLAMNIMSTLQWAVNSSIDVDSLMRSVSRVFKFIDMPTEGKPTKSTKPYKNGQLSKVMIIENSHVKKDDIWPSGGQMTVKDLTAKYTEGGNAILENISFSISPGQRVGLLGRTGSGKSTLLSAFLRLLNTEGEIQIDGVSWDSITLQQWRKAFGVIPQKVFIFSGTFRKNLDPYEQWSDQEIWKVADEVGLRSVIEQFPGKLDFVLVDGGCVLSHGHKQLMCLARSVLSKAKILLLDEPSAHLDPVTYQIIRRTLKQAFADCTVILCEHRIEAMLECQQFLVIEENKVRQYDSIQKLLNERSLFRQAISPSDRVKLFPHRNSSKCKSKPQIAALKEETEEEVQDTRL

healthy subjects = assay: Thorough QT study (ECG evaluation); format: in vivo, human; details: 150 mg and 450 mg twice daily, 72 healthy subjects
Protocol: The highest repeated dose was 450 mg (in a tablet formulation) every 12 hours for 4.5 days (9 doses) in a trial evaluating the effect of KALYDECO™ on ECGs in healthy subjects.
The effect of multiple doses of ivacaftor 150 mg and 450 mg twice daily on QTc interval was evaluated in a randomized, placebo- and active-controlled (moxifloxacin 400 mg) four-period crossover thorough QT study in 72 healthy subjects.

rabbits = assay: Teratogenicity in rabbits; format: in vivo, rabbit; details: maternal dose 100 mg/kg/day, approximately 12 times the MRHD
Text: (§5) There are no adequate and well-controlled studies of KALYDECO™ in pregnant women. […] Because animal reproduction studies are not always predictive of human response, KALYDECO™ should be used during pregnancy only if clearly needed.

[9] = test system: Chinese hamster ovary cells; assay: In vitro chromosomal aberration assay; format: cell-based; details: CHO cells
Text: (§6) Ivacaftor was negative for genotoxicity in the following assays: Ames test for bacterial gene mutation, in vitro chromosomal aberration assay in Chinese hamster ovary cells, and in vivo mouse micronucleus test.

G551D-CFTR protein [10] = target: T1, G551D-CFTR protein; assay: CFTR-mediated transepithelial current (IT) in rodent cells expressing G551D-CFTR; format: cell-based; design: expressed in transfected cells
rats [11] = assay: Teratogenicity in rats; format: in vivo, rat; details: maternal dose 200 mg/kg/day, approximately 6 times the MRHD
Text: as §5

pregnant rabbits = assay: Placental transfer in pregnant rabbits; format: in vivo, rabbit
Text: as §5

mouse = assay: In vivo mouse micronucleus test
Text: as §6

human red blood cells = assay: Binding to red blood cells; format: in vitro ADME
G551D-CFTR protein [12] = target: T1, G551D-CFTR protein; assay: Transepithelial current (IT) in human bronchial epithelial cells expressing G551D-CFTR; format: cell-based; design: endogenous in cells; host or cells: human bronchial epithelial cells
pregnant rats = assay: Placental transfer in pregnant rats; format: in vivo, rat
Text: as §5

bacterial gene mutation = assay: Ames test for bacterial gene mutation; format: cell-based
Text: as §6

[13] = moderately impaired hepatic function (Child-Pugh Class B, score 7 to 9)
[14] = rats, 200 mg/kg/day, dams dosed prior to and during early pregnancy

CC(C)(C)c1cc(C(C)(C)CO)c(O)cc1NC(=O)c1c[nH]c2ccccc2c1=O [M1, hydroxymethyl-ivacaftor]
potency relative to ivacaftor [1]: approximately one-sixth | share of the total dose eliminated as this metabolite ([2]; in vivo): 22% | increase of M1 exposure (CYP3A; ivacaftor co-administered with fluconazole): 1.9 fold | increase of M1 exposure (CYP3A; ivacaftor co-administered with ketoconazole): 1.7 fold | substrate of CYP3A enzymes (CYP3A4 and CYP3A5) [3]: substrates

CC(C)(C)c1cc(C(C)(C)C)c(NC(=O)c2c[nH]c3ccccc3c2=O)cc1O [Ivacaftor, N-[2,4-bis(1,1-dimethylethyl)-5-hydroxyphenyl]-1,4-dihydro-4-oxoquinoline-3-carboxamide]
apparent volume of distribution, mean (±SD) ([4]; 150 mg orally every 12 hours for 7 days, healthy volunteers, fed state): 353 (122) L | increase of exposure when given with food containing fat ([4]; human, in vivo): 2-4 fold | mean apparent clearance (CL/F), healthy subjects versus patients with CF ([4]; human, in vivo): similar | pharmacokinetics, healthy adult volunteers versus patients with CF ([4]; human, in vivo): similar | Tmax ([4]; human, in vivo, fed state, read-out: median (range) tmax): ~4 h | half-life ([4]; human, in vivo, following a single dose, read-out: apparent terminal half-life (converted)): ~12 h | AUC ([4]; human, in vivo, single 150 mg oral dose, healthy volunteers, fed state, read-out: AUC, mean (±SD)): 10600 ng·h/mL | Cmax ([4]; human, in vivo, single 150 mg oral dose, healthy volunteers, fed state, read-out: Cmax, mean (±SD)): 768 ng/mL | Tmax ([4]; human, in vivo, single 150 mg oral dose, healthy volunteers, fed state, read-out: time of peak plasma concentrations (Tmax)): ~4 h | mean apparent volume of distribution (Vz/F), healthy subjects versus patients with CF ([4]; single dose of 275 mg, fed state): similar | AUC(0-inf) ([5]; human, in vivo, oral, single dose of 150 mg, moderately impaired hepatic function, read-out: AUC0-∞, mean (±SD)): 16800 ng·h/mL | Cmax ([5]; human, in vivo, oral, single dose of 150 mg, moderately impaired hepatic function, read-out: Cmax, mean (±SD)): 735 ng/mL | Cmax compared with healthy subjects matched for demographics [5, 13]: similar | increase in AUC0-∞ compared with healthy subjects matched for demographics [5, 13]: approximately two-fold | prolonged diestrus (male and female rats; female rats, 200 mg/kg/day): Increases | fertility and reproductive performance indices (male and female rats; male and female rats, 200 mg/kg/day, attributed to severe toxicity): impaired | fertility and reproductive performance indices (male and female rats; male or female rats, ≦100 mg/kg/day (approximately 3 times the MRHD)): No effects | corpora lutea, implantations, and viable embryos (male and female rats; [14]): decreased | number of females with all nonviable embryos (male and female rats; [14]): increased | EC50, FEV1 versus ivacaftor exposure, Emax model [6]: 0.045 µg/mL (≈ 0.115 µM) | EC90, FEV1 versus ivacaftor exposure, Emax model [6]: 0.405 µg/mL (≈ 1.03 µM) | tumorigenicity (mice): No evidence of tumorigenicity | excretion into milk (lactating female rats): excreted into the milk | solubility (Solubility in water): < 0.05 µg/mL | cataracts (juvenile rats): Cataracts were seen | fraction unbound (Plasma protein binding): ~0.01 | tumorigenicity (rats [7]): No evidence of tumorigenicity | increase of open probability of G551D-CFTR protein (G551D-CFTR protein [8]): 6 fold | upper bound of the one-sided 95% confidence interval for the largest placebo adjusted, baseline-corrected QTcF (healthy subjects): below 10 ms | urinary excretion as unchanged parent ([2]; in vivo): negligible | total radioactivity recovered in the urine ([2]; ivacaftor and its metabolites, human PK study): 6.6% | teratogenic effects (rabbits): not teratogenic | genotoxicity [9]: negative | increase of IT in the absence of cAMP agonist (G551D-CFTR protein [10]): did not increase | EC50 (G551D-CFTR protein [10]; following addition of a cAMP agonist, read-out: EC50, increase of CFTR-mediated transepithelial current (IT)): 0.1 ± 0.047 µM | teratogenic effects (rats [11]): not teratogenic | placental transfer (pregnant rabbits): observed | genotoxicity (mouse): negative | increase of ivacaftor exposure (CYP3A; co-administration with fluconazole, a moderate inhibitor of CYP3A): 3 fold | increase of ivacaftor exposure (AUC) (CYP3A; co-administration with ketoconazole, a strong CYP3A inhibitor): 8.5 fold | decrease of ivacaftor exposure (AUC) (CYP3A; co-administration with rifampin, a strong CYP3A inducer): approximately 9 fold | binding to human red blood cells (human red blood cells): does not bind | EC50 (G551D-CFTR protein [12]): 0.236 ± 0.2 µM | increase of IT (G551D-CFTR protein [12]; human bronchial epithelial cells expressing G551D-CFTR, following addition of a cAMP agonist): 10 fold | placental transfer (pregnant rats): observed | genotoxicity (bacterial gene mutation): negative | primary route of metabolism ([3]; in vitro and clinical studies): primarily metabolized by CYP3A | substrate of CYP3A enzymes (CYP3A4 and CYP3A5) [3]: substrates

CC(C)(C)c1cc(C(C)(C)C(=O)O)c(O)cc1NC(=O)c1c[nH]c2ccccc2c1=O [M6]
potency relative to ivacaftor [1]: less than one-fiftieth | share of the total dose eliminated as this metabolite ([2]; in vivo): 43%
